Results reported in ChEMBL document CHEMBL3885861, “Open TG-GATES”.

Organism: Rattus norvegicus
Assay: Open TG-GATES - Regimen: Single
Format: toxicity, organism-based, Sprague-Dawley
Design: regimen Single, gender Male, age 6 weeks
Details: in vivo, po, 0 mg/kg, route gavage, dose level Control; for APTT / Bas / Eos / Fbg / Hb / Ht / Lym / MCH / MCHC / MCV / Mono / Neu / PT / Plat / RBC / Ret / WBC: tissue Blood; for KIDNEY_L / KIDNEY_R / KIDNEY_TOTAL: tissue Kidney; for LIVER: tissue Liver; for A/G / ALP / ALT / AST / BUN / CRE / Ca / Cl / DBIL / GLC / IP / K / LDH / Na / PL / RALB / TBIL / TC / TG / TP / gamma-GTP: tissue Plasma

CN(C)CCN(Cc1cccs1)c1ccccn1
TERMINAL_BW (3 h): 183.4 g | APTT (3 h): 20.4 s | Bas (3 h): 0% | Eos (3 h): 0.4% | Fbg (3 h): 308 mg/dL | Hb (3 h): 13.1 g/dL | Ht (3 h): 40.4% | Lym (3 h): 76.8% | MCH (3 h): 20.9 pg | MCHC (3 h): 32.5% | MCV (3 h): 64.2 fL | Mono (3 h): 2.4% | Neu (3 h): 20% | PT (3 h): 16.5 s | Plat (3 h): 124.4 x10_4/uL | RBC (3 h): 629.4 x10_4/ul | Ret (3 h): 7.8% | WBC (3 h): 76.5 x10_2/uL | KIDNEY_L (3 h): 0.8 g | KIDNEY_R (3 h): 0.9 g | KIDNEY_TOTAL (3 h): 1.7 g | LIVER (3 h): 8.4 g | A/G (3 h): 1.2 | ALP (3 h): 1580.4 IU/L | ALT (3 h): 41.4 IU/L | AST (3 h): 72.8 IU/L | BUN (3 h): 14.4 mg/dL | CRE (3 h): 0.2 mg/dL | Ca (3 h): 10.3 mg/dL | Cl (3 h): 107.4 meq/L | DBIL (3 h): 0 mg/dL | GLC (3 h): 181.8 mg/dL | IP (3 h): 7.7 mg/dL | K (3 h): 4.2 meq/L | LDH (3 h): 227 IU/L | Na (3 h): 142.8 meq/L | PL (3 h): 127.6 mg/dL | RALB (3 h): 2.9 g/dL | TBIL (3 h): 0.008 mg/dL | TC (3 h): 70.4 mg/dL | TG (3 h): 42.6 mg/dL | TP (3 h): 5.3 g/dL | gamma-GTP (3 h): 1 IU/L | TERMINAL_BW (6 h): 186.2 g | APTT (6 h): 20.7 s | Bas (6 h): 0% | Eos (6 h): 0.4% | Fbg (6 h): 303 mg/dL | Hb (6 h): 12.6 g/dL | Ht (6 h): 38.6% | Lym (6 h): 84.6% | MCH (6 h): 21 pg | MCHC (6 h): 32.7% | MCV (6 h): 64.1 fL | Mono (6 h): 1.6% | Neu (6 h): 12.4% | PT (6 h): 17.2 s | Plat (6 h): 119.7 x10_4/uL | RBC (6 h): 603 x10_4/ul | Ret (6 h): 7.8% | WBC (6 h): 97.9 x10_2/uL | KIDNEY_L (6 h): 0.9 g | KIDNEY_R (6 h): 0.9 g | KIDNEY_TOTAL (6 h): 1.7 g | LIVER (6 h): 8.3 g | A/G (6 h): 1.2 | ALP (6 h): 1742 IU/L | ALT (6 h): 37.4 IU/L | AST (6 h): 68.4 IU/L | BUN (6 h): 10.8 mg/dL | CRE (6 h): 0.2 mg/dL | Ca (6 h): 10 mg/dL | Cl (6 h): 106.2 meq/L | DBIL (6 h): 0 mg/dL | GLC (6 h): 174.2 mg/dL | IP (6 h): 9 mg/dL | K (6 h): 4.1 meq/L | LDH (6 h): 171.6 IU/L | Na (6 h): 141.8 meq/L | PL (6 h): 127.2 mg/dL | RALB (6 h): 2.9 g/dL | TBIL (6 h): 0.016 mg/dL | TC (6 h): 74.8 mg/dL | TG (6 h): 44.6 mg/dL | TP (6 h): 5.3 g/dL | gamma-GTP (6 h): 1 IU/L | TERMINAL_BW (9 h): 180.7 g | APTT (9 h): 20.7 s | Bas (9 h): 0% | Eos (9 h): 0.8% | Fbg (9 h): 296.8 mg/dL | Hb (9 h): 13 g/dL | Ht (9 h): 39.3% | Lym (9 h): 82.2% | MCH (9 h): 21.1 pg | MCHC (9 h): 33.1% | MCV (9 h): 63.9 fL | Mono (9 h): 1.6% | Neu (9 h): 14.8% | PT (9 h): 15.6 s | Plat (9 h): 121.1 x10_4/uL | RBC (9 h): 615.8 x10_4/ul | Ret (9 h): 7.7% | WBC (9 h): 69.3 x10_2/uL | KIDNEY_L (9 h): 0.8 g | KIDNEY_R (9 h): 0.8 g | KIDNEY_TOTAL (9 h): 1.6 g | LIVER (9 h): 7.3 g | A/G (9 h): 1.2 | ALP (9 h): 1371.8 IU/L | ALT (9 h): 33.8 IU/L | AST (9 h): 66.4 IU/L | BUN (9 h): 11.2 mg/dL | CRE (9 h): 0.2 mg/dL | Ca (9 h): 10.1 mg/dL | Cl (9 h): 106.8 meq/L | DBIL (9 h): 0 mg/dL | GLC (9 h): 177.8 mg/dL | IP (9 h): 9.6 mg/dL | K (9 h): 4.2 meq/L | LDH (9 h): 171.2 IU/L | Na (9 h): 142.4 meq/L | PL (9 h): 133.2 mg/dL | RALB (9 h): 2.9 g/dL | TBIL (9 h): 0.018 mg/dL | TC (9 h): 73.4 mg/dL | TG (9 h): 59.4 mg/dL | TP (9 h): 5.3 g/dL | gamma-GTP (9 h): 1 IU/L | TERMINAL_BW (24 h): 200.8 g | APTT (24 h): 20.1 s | Bas (24 h): 0% | Eos (24 h): 0.8% | Fbg (24 h): 280.8 mg/dL | Hb (24 h): 12.9 g/dL | Ht (24 h): 39.1% | Lym (24 h): 79.2% | MCH (24 h): 21.2 pg | MCHC (24 h): 33% | MCV (24 h): 64.3 fL | Mono (24 h): 2.4% | Neu (24 h): 17% | PT (24 h): 16.5 s | Plat (24 h): 120.3 x10_4/uL | RBC (24 h): 608.2 x10_4/ul | Ret (24 h): 8% | WBC (24 h): 89.7 x10_2/uL | KIDNEY_L (24 h): 0.9 g | KIDNEY_R (24 h): 0.9 g | KIDNEY_TOTAL (24 h): 1.8 g | LIVER (24 h): 9.4 g | A/G (24 h): 1.2 | ALP (24 h): 1802.6 IU/L | ALT (24 h): 41.6 IU/L | AST (24 h): 71.8 IU/L | BUN (24 h): 16.8 mg/dL | CRE (24 h): 0.2 mg/dL | Ca (24 h): 11 mg/dL | Cl (24 h): 105.6 meq/L | DBIL (24 h): 0.002 mg/dL | GLC (24 h): 188 mg/dL | IP (24 h): 7.4 mg/dL | K (24 h): 4.4 meq/L | LDH (24 h): 206.4 IU/L | Na (24 h): 142.4 meq/L | PL (24 h): 149.8 mg/dL | RALB (24 h): 3 g/dL | TBIL (24 h): 0.018 mg/dL | TC (24 h): 77.8 mg/dL | TG (24 h): 92.6 mg/dL | TP (24 h): 5.4 g/dL | gamma-GTP (24 h): 1 IU/L
